From patent publication US10106526B2, “Inhibitors of cyclin-dependent kinase 7 (CDK7)” (SYROS PHARMACEUTICALS, INC., priority 2014, dated 2018)

Columns and labels:
CDK7 = target: T1, CDK7 (Homo sapiens, UniProt P50613); assay: CDK7 kinase activity, Adapta kinase assay (Life Technologies); type: biochemical; conditions: Adapta kinase assay at Life Technologies; 10 μM down to 0.514 nM, 3-fold serial dilutions; read-out: CDK7 Inhibition (IC50)
T1 construct: purchased Life Technologies (Adapta kinase assay service)
Method in brief: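 Adapta kinase activity assay run as a commercial service; substrates not specified here. Compounds tested in 3-fold serial dilutions from 10 μM down to 0.514 nM.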

[1] = target: CDK7/Cyclin H/MAT1 trimeric complex (Homo sapiens, UniProt P50613); assay: CDK7 kinase assay, Caliper/LabChip EZ Reader (Biortus Biosciences); type: biochemical; conditions: CDK7/Cyclin H/MAT1 10 nM, ATP 2 mM, FAM-CDK7tide 2 μM, 30 min incubation, read-out: CDK7 Inhibition (IC50)
Description: Compounds of the invention were further assayed for CDK7 activity at Biortus Biosciences (Jiangyin, Jiangsu Province, P.R. of China) using a CDK7 kinase assay developed with a Caliper/LabChip EZ Reader (Perkin Elmer, Waltham, Mass.). […] The incubation period was chosen such that the total fraction of phosphorylated peptide product produced was <20% for the uninhibited kinase.

Jurkat cells = assay: Inhibition of proliferation of Jurkat cells (CellTiter-Glo, 72 hour); type: cell-based, human; conditions: 10 μM to 316 pM
Method in brief: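 Human T-cell leukemia Jurkat cells in RPMI 1640 with 10% FBS were exposed 72 h at 37 °C, 5% CO2 to compounds from 10 μM to 316 pM in 0.5-log steps. Anti-proliferative effect measured by CellTiter-Glo; IC50 reported in binned categories.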

A673 cells = assay: Inhibition of proliferation of A673 cells (CyQUANT, 72 hour); type: cell-based, human; conditions: 72 hour proliferation
Method in brief: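 Human Ewing's sarcoma A673 cells in DMEM + 10% FBS + 1 mM sodium pyruvate, 37 °C, 5% CO2, exposed to compounds from 4 μM to 126.4 pM (0.5 log dilutions) for 72 h. Proliferation read by CyQUANT; IC50 reported as binned categories.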

Sequence of CDK7/Cyclin H/MAT1 trimeric complex (P50613 whole entry): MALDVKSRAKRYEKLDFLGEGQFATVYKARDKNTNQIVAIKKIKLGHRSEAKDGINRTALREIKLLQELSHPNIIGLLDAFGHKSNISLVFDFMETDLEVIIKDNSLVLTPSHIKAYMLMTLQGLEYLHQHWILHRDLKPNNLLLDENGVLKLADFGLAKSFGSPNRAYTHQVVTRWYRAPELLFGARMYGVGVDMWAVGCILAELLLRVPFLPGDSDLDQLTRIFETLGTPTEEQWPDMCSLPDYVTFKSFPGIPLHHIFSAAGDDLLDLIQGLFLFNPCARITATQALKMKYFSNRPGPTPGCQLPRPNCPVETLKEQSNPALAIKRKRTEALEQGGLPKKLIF
Sequence of CDK7/Cyclin H/MAT1 trimeric complex (P51946 whole entry partner): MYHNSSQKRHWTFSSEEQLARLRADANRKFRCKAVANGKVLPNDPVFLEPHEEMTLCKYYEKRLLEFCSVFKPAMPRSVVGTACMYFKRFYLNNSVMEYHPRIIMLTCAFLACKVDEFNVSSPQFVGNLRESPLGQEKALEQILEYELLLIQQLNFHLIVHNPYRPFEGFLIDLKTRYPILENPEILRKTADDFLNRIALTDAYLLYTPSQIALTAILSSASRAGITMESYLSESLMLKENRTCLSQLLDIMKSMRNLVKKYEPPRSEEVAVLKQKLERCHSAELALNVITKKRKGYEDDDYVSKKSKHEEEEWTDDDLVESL
Sequence of CDK7/Cyclin H/MAT1 trimeric complex (P51948 whole entry partner): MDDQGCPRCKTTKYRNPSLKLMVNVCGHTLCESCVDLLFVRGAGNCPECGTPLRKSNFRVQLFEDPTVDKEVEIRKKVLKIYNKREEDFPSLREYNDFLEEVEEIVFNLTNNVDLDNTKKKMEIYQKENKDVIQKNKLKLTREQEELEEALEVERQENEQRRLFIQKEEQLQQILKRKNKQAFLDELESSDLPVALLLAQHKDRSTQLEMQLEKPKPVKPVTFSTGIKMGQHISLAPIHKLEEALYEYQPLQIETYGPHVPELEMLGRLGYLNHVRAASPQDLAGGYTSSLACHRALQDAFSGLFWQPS
T1 sequence (P50613 whole entry): as the sequence (P50613 whole entry) above
T1 sequence (P51946 whole entry partner): as the sequence (P51946 whole entry partner) above
T1 sequence (P51948 whole entry partner): as the sequence (P51948 whole entry partner) above

| Compound | IC50 (CDK7) | IC50 [1] | IC50 (Jurkat cells; Homo sapiens) | IC50 (Jurkat cells) | IC50 (A673 cells; Homo sapiens) | IC50 (A673 cells) |
| --- | --- | --- | --- | --- | --- | --- |
| C=CC(=O)N1CCN(C2CCCC(Nc3ncc(Cl)c(-c4c[nH]c5ccccc45)n3)C2)CC1C (stereo not shown) [Compound 229] | < 100 nM | < 100 nM |  | 500 to 5000 nM |  | < 500 nM |
| CN(C)C/C=C/C(=O)N1CCC(C(=O)N2CC[C@@H](Nc3ncc(Cl)c(-c4c[nH]c5ccccc45)n3)C2)CC1 [Compound 213, (E)-1-[4-[(3R)-3-[[5-chloro-4-(1H-indol-3-yl)pyrimidin-2-yl]amino]pyrrolidine-1-carbonyl]-1-piperidyl]-4-(dimethylamino)but-2-en-1-One] | < 100 nM | < 100 nM | > 5000 nM |  | < 500 nM |  |
| CN(C)C/C=C/C(=O)Nc1ccc(C(=O)N[C@H]2CCC[C@@H](Nc3ncc(C#N)c(-c4c[nH]c5ccccc45)n3)C2)nc1 [Compound 110, N-((1S,3R)-3-(5-cyano-4-(1H-indol-3-yl)pyrimidin-2-ylamino)cyclohexyl)-5-((E)-4-(dimethylamino)but-2-enamido)picolinamide] | < 100 nM | < 100 nM | < 500 nM |  | < 500 nM |  |

Second part, led by results:

| IC50 (CDK7) | IC50 [1] | IC50 (Jurkat cells; Homo sapiens) | IC50 (Jurkat cells) | Compound | IC50 (A673 cells; Homo sapiens) | IC50 (A673 cells) |
| --- | --- | --- | --- | --- | --- | --- |
| < 100 nM | < 100 nM | > 5000 nM |  | C=CC(=O)N1CCC(NC[C@H]2CCC[C@@H](Nc3ncc(Cl)c(-c4c[nH]c5ccccc45)n3)C2)CC1 [Compound 127, 1-[4-[[(1S,3R)-3-[[5-chloro-4-(1H-indol-3-yl)pyrimidin-2-yl]amino]cyclohexyl]methylamino]-1-piperidyl]prop-2-en-1-One] | < 500 nM |  |
| < 100 nM | < 100 nM | < 500 nM |  | C=CC(=O)N1CCC[C@@H](C(=O)N[C@H]2CCC[C@@H](Nc3ncc(Cl)c(-c4c[nH]c5ccccc45)n3)C2)C1 [Compound 174, (R)-1-acryloyl-N-((1S,3R)-3-(5-chloro-4-(1H-indol-3-yl)pyrimidin-2-ylamino)cyclohexyl)piperidine-3-carboxamide] | < 500 nM |  |
| < 100 nM | < 100 nM |  | < 500 nM | 4-trans-acrylamido-N-((1S,3R)-3-(5-chloro-4-(1H-indol-3-yl)pyrimidin-2-ylamino)cyclohexyl)cyclohexanecarboxamide [Compound 117] |  | < 500 nM |
| < 100 nM | < 100 nM |  | < 500 nM | C=CC(=O)N1CCN(C2CCCC(Nc3ncc(Cl)c(-c4c[nH]c5ccccc45)n3)C2)CC1C (stereo not shown) [Compound 232] |  | < 500 nM |
